Measured values: patent US20250018002A1, “Gap Junction Modulators and Their Use for the Treatment of Age-Related Macular Degeneration” (Breye Therapeutics APS, priority 2021, published 2025)
“Also recorded” adds a separate entry of the source.

Key:
[1] = system: kidney epithelial cells; details: Squires et al., 2021; cited from earlier work
[2] = system: Human retinal pigment epithelial cells (ARPE-19); assay: Tight junction organization rate (TiJOR), anti-ZO-1 immunocytochemistry in stressed ARPE-19 monolayers; assay type: cell-based; details: danegaptide 100 nM, 24 h pre-treatment, then 48 h 30 mM glucose + sublethal tBHP; n=13-16
Description: For immunocytochemistry, ARPE-19 cells were grown to confluency in chamber slides for 72 h. Cells were then be pre-treated with Danegaptide (DGP; 100 nM) or vehicle control for 24 h. Subsequently, cells were challenged with a combination of sublethal oxidative stress (250 μM tert-butyl hydroperoxide; Millipore Sigma, St. Louis, MO) and hyperglycemia (30 mM glucose; Millipore Sigma, St. Louis, MO) for 48 h, in the continued presence of 100 nM DGP or vehicle.
Cells were labelled with anti-ZO-1 antibody (mouse anti-human 70-1, […], cat #339100, Invitrogen, Thermo Fisher Scientific, Carlsbad, CA) in antibody solution (3% normal goat serum, 1% bovine serum albumin, 0.5% Triton X-100, 0.05% sodium azide in 0.1 M Phosphate buffer pH 7.4) for 2 h at room temperature. […]
The tight junction organization rate (TiJOR) was calculated from confocal images, as described previously (Terryn et al., 2013). […]
Tight junction organization was assessed by immunocytochemistry using anti-zonula occludens 1 (ZO-1) immunostaining (bottom images of FIG. 2; that is, FIG. 2B), a major component of Tight Junctions that binds the cytoplasmic domain of both the Gap Junction transmembrane protein, Cx43, and the TJ transmembrane proteins, occludin(s) and claudin(s). The Tight Junction organization index (TiJOR) was calculated according to Terryn et al., 2013 and measures the degree of TJ dependent cell-cell coupling.

[3] = system: STZ-induced DR in the Brown Norway rat; assay: Evans Blue retinal extravasation (vascular leakage) in STZ-induced diabetic retinopathy; assay type: in vivo; details: week 9 after STZ, 3 weekly IVT injections
Description: Diabetes was induced in the Brown Norway rats (aged 9-10 weeks) by a single dose of streptozotocin (STZ; 65 mg/kg. Sigma) in 10 mM sodium citrate buffer, pH 4.5. After the STZ injection, rats were placed in their cages with ad libitum food and 10% (w/v) sucrose solution in tap water for 48 h. The next morning, 5% glucose (1 ml) was injected intraperitoneally or subcutaneously to all induced rats. Four days after the first STZ injection, the success of the induction was monitored by measuring the blood glucose levels from the saphenous vein. The induction of diabetes was considered successful when the blood glucose values measured by the rapidmeter were equal or higher than 16 mmol/l (288 mg/dl). […]
The selected rats were monitored for blood glucose levels and animal health for 6 weeks, and then treated with weekly intravitreal (IVT) injections of vehicle or test compounds for three weeks for a total of 3× IVT eye injections per eye per animal. […]
Retinas were homogenized in formamide in a 1:10 ratio (w/v) and incubated overnight at +70°. […] Absorbance (λ=620 nm) of the samples was measured using a plate reader (Cytation 3, BioTek Instruments Inc., Winooski, VT) and the concentration of Evans Blue in each sample was calculated against a standard curve of Evans Blue and normalized to tissue weight. […]

[4] = system: Brown Norway rats; assay: Tolerability, macroscopic ophthalmic examinations after IVT injections; assay type: in vivo; details: bilateral IVT 5 μl, three weekly injections
Description: (§1) For IVT treatment administration, the animals were anesthetized animals, placed under a stereoscope (Leica Microsystems), and a drop of iodine was applied on the cornea and allowed to spread evenly (Minims Povidone lodine 5%, Bausch & Lomb). A small incision in the […] exposing the vitreous chamber was performed using a 30 G needle near the limbus. A microsyringe with a 33G needle (Hamilton Bonaduz AG, Bonaduz) attached was used to inject the compounds into the intravitreal space. The test solution was injected into the intravitreal space for 10 s, the needle was kept in place for additional 30 s before being removed to avoid the reflux of the compound. Chloramphenicol ointment was applied after the injection (Oftan Chlora, Santen Oy). The different treatments were administered three times by bilateral intravitreal administration of a volume of 5 μl at weeks six, seven, and eight after STZ induction.
STZ-induced cataracts are common in this model and developed moderate severity by the end of the study (FIG. 4). All test articles were well-tolerated, and no signs of ocular toxicity were identified by macroscopic ophthalmic examinations. Test articles exerted no differential effects on cataract development (FIG. 4).

[5] = system: STZ-induced DR in the Brown Norway rat; assay: PAS staining of trypsin-digested retinal flat mounts: pericytes, pericyte ghosts, acellular capillaries; assay type: in vivo; details: week 9 after STZ
Description: (§2) Diabetes was induced in the Brown Norway rats (aged 9-10 weeks) by a single dose of streptozotocin (STZ; 65 mg/kg. Sigma) in 10 mM sodium citrate buffer, pH 4.5. After the STZ injection, rats were placed in their cages with ad libitum food and 10% (w/v) sucrose solution in tap water for 48 h. The next morning, 5% glucose (1 ml) was injected intraperitoneally or subcutaneously to all induced rats. Four days after the first STZ injection, the success of the induction was monitored by measuring the blood glucose levels from the saphenous vein. The induction of diabetes was considered successful when the blood glucose values measured by the rapidmeter were equal or higher than 16 mmol/l (288 mg/dl). Animals that were not diabetic based on this criterion 96 h after the first STZ injection received a second STZ injection.
(§3) The selected rats were monitored for blood glucose levels and animal health for 6 weeks, and then treated with weekly intravitreal (IVT) injections of vehicle or test compounds for three weeks for a total of 3× IVT eye injections per eye per animal.
For IVT treatment administration, the animals were anesthetized animals, placed under a stereoscope (Leica Microsystems), and a drop of iodine was applied on the cornea and allowed to spread evenly (Minims Povidone lodine 5%, Bausch & Lomb). […]
Four to six individual images obtained from a central area, and from a peripheral area of the retinal vasculature were acquired using a Leica Thunder 3D Tissue Imager (Leica Microsystems). The number of acellular capillaries, the number of pericytes and the number of pericyte ghosts were manually counted by an investigator blinded to the experimental group assignment.
Vascular abnormalities and the effect of induction of DR by STZ induction were also assessed by quantification of acellular capillaries, pericytes and pericyte ghosts on trypsin-digested retinal wholemounts. For quantification, 4-15 individual images were quantified for each animal and the data from each image were included in the analysis.
Subsequently, number of pericyte ghosts was quantified.

[6] = system: STZ-induced DR in the Brown Norway rat; assay: SD-OCT retinal thickness in STZ-induced diabetic retinopathy; assay type: in vivo; details: week 9 after STZ
Description: as §2, §3, §1
Anesthetized rats were imaged with SD-OCT (Envisu R2200. Bioptigen Inc./Leica Microsystems) retinal scan at week nine as shown in FIG. 5C. The scanned area covers a 2.4×2.4 mm^2 of the retina centred around the optic nerve. Each scan is composed of 100 B Scans each one composed of 1000 A Scans. SD-OCT was performed on both eyes at week nine after DR induction prior to sacrifice and sampling.
The retinal thickness at week nine was analyzed by a convolutional neural network based on U-net architecture using transfer learning approach. The resulting segmentation masks were used to measure the layer thickness in each pixel-width column, i.e. a-scan, resulting in 1000 measuring points for each layer per one b-scan. Only measuring points that passed the automatic quality control criteria set were used in the calculations. The thickness results were presented as SD-OCT measurements of the inner retina, including the nerve ganglion cell layer, inner plexiform and inner nuclear layers; and the outer retina, including the outer plexiform layer, outer nuclear layer, inner and outer segment, and RPE/choroid. […] See FIGS. 5, 7 and 8 for the results of SD-OCT.
SD-OCT scans were taken at week nine prior to sampling. The retinal scans were segmented, and the thickness was analyzed by a convolutional neural network algorithm.
Outer retinal thickness was quantified from SD-OCT images from 24 locations to generate a mean thickness of outer retinal thickness. Outliers were removed using the GROUT method (Q=1%), leading to the removal of a total of 5 outliers (naïve: 0, STZ+Vehicle: 1; STZ+AF564: 1; STZ+Danegaptide: 1; STZ+AF564+Danegaptide: 2).
SD-OCT scans were taken at week nine prior to sampling. Retinal scans were segmented and the thickness was analyzed by a convolutional neural network algorithm. Inner retinal thickness was analyzed by region (FIG. 8).

[7] = 3 weekly IVT injections, SD-OCT
[8] = 3 weekly IVT injections, average per group

## NCC(=O)N1C[C@H](NC(=O)c2ccccc2)C[C@H]1C(=O)O [Danegaptide, (2S,4R)-1-(2-aminoacetyl)-4-benzoylamino-pyrrolidine-2-carboxylic acid]
[1]
  ATP leakage from kidney epithelial cells: can reduce ATP leakage
[2]
  Protection against loss of Tight Junction organization (TiJOR): completely protected; also recorded: partial protection
[3]
  Reduction of EB extravasation vs STZ+Vehicle: 68.9%
[3]; normalized to STZ+Vehicle, mean±S.E.M.
  Evans Blue (EB) extravasation, % of STZ+Vehicle: 31.1±5.3%
[4]
  Tolerability / ocular toxicity: well tolerated
[5]; One-Way ANOVA, Dunnett's test
  Effect on number of pericyte ghosts vs STZ+Vehicle: statistically significant reduction
[5]; count per image, STZ+Vehicle 22 ± 1
  Acellular capillaries (number): 20 ± 1
[5]; count per image, STZ+Vehicle 52 ± 2
  Pericytes (sum of the number of pericytes and pericyte ghosts): 49 ± 2
[6]; [7]
  Total retinal thickness, IN: 206 ± 1.8 μm
  Total retinal thickness, IT: 217 ± 1.6 μm
  Total retinal thickness, SN: 205 ± 1.9 μm
  Total retinal thickness, ST: 210 ± 2.6 μm
  Total retinal thickness, Whole Retina: 212 ± 2.2 μm
[6]; [8]
  Outer retinal thickness, IN (inferior-nasal): 121.17 μm
  Outer retinal thickness, IT (inferior-temporal): 123.61 μm
  Outer retinal thickness, SN (superior-nasal): 117.36 μm
  Outer retinal thickness, ST (superior-temporal): 118.14 μm
[6]; regional analysis ST, SN, IT, IN
  Effect on inner retinal thickness: No biologically relevant effects
[6]; weekly IVT injections at weeks 6, 7, 8, mean±S.E.M., STZ+Vehicle 123.8±0.9, naïve 119.8±0.5
  Outer retinal thickness (mean): 119.7±0.8 μm
